Reference: ChEMBL document CHEMBL1132330 (J Med Chem, 1999)

Assays:
[1] = system: Substance-K receptor (Mesocricetus auratus); assay: Efficacy towards hamster Tachykinin receptor 2 was determined
Substance-K receptor [2] = target: T1, Substance-K receptor (Homo sapiens, UniProt P21452); assay: The compound was tested for competition binding with [3H]NKA against the CHO cells from cloned human Tachykinin receptor 2; assay type: cell-based
T1 sequence (P21452 whole entry): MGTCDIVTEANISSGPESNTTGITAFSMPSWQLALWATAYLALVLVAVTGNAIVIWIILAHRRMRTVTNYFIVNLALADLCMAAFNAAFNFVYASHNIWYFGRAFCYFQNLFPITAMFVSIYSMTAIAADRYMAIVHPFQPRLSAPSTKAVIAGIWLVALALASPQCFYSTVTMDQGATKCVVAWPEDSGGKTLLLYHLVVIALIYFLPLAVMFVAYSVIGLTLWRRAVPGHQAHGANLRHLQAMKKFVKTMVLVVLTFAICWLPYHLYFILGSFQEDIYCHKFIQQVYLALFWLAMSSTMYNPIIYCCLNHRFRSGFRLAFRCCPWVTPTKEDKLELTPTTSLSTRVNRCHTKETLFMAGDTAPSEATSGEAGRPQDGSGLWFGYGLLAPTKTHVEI

Substance-K receptor [3] = target: T1, Substance-K receptor; assay: Inhibitory activity against human Tachykinin receptor 2

Compound | Efficacy [1] | Ki (Substance-K receptor [2]) | IC50 (Substance-K receptor [3])
CC(C)CC[C@H](NC(=O)[C@H](CC(C)C)NC(=O)CNC(=O)[C@@H](NC(=O)[C@H](Cc1ccccc1)NC(=O)[C@@H](NC(=O)[C@@H](N)CC(=O)O)[C@@H](C)O)C(C)C)C(N)=O | 116 |  | 
CSCC[C@H](NC(=O)[C@H](CC(C)C)NC(=O)CNC(=O)[C@@H](NC(=O)[C@H](Cc1ccccc1)NC(=O)[C@H](Cc1ccccc1)NC(=O)[C@H](CC(=O)O)NC(=O)[C@H](Cc1c[nH]cn1)NC(=O)[C@H](CCSC)NC(=O)[C@@H](N)CC(=O)O)C(C)C)C(N)=O [NEUROKININ B] |  | 42.2 nM | 102 nM
CC(C)CC[C@H](NC(=O)[C@H](CC(C)C)NC(=O)CNC(=O)[C@@H](NC(=O)[C@H](Cc1ccc(F)cc1)NC(=O)[C@@H](NC(=O)[C@@H](N)CC(=O)O)[C@@H](C)O)C(C)C)C(N)=O | 114 |  | 
CC(C)CC[C@H](NC(=O)[C@H](CC(C)C)NC(=O)CNC(=O)[C@@H](NC(=O)[C@H](Cc1ccc(Cl)cc1)NC(=O)[C@@H](NC(=O)[C@@H](N)CC(=O)O)[C@@H](C)O)C(C)C)C(N)=O | 97.8 |  | 
